Data as given in US11999806B2, “Broad-spectrum polypeptide against enterovirus and application thereof” (WUHAN INSTITUTE OF VIROLOGY, CHINESE ACADEMY OF SCIENCES, priority 2018, dated 2024).
Several values for one entry are separate records, joined by “and”; a condition that tells them apart may be missing. Identical values can stand only once. Non-standard residues stand in square brackets, D forms with d. Residues, ends and D or L forms follow the SMILES beside them. No end group written: not given here.

How the values were obtained:
[1] = tested on: EV71; assay: Antiviral activity against EV71 in mice, virus copies in lung by qRT-PCR; assay type: in vivo, ICR mice
Text: • (1) 10 2-day-old ICR mice were randomly divided into two groups, 5 in each group.

[2] = tested on: CVA6; assay: Anti-CVA6 effect in Vero cells, qRT-PCR; assay type: cell-based, Coxsackievirus A6; conditions: for Virus inhibition rate (%): CVA6 MOI 0.01, Vero cells, 24 h, qRT-PCR
Procedure: • (1) Vero cells were plated in a 24-well cell plate. • (2) After the cells reached 70%-80% confluence, the MEM medium containing 10% serum was replaced with a MEM medium containing 2% serum and CVA6 virus, 0.5 ml per well. MOI of the virus was 0.01. The wells without CVA6 virus was set as control group. • (3) After 1 h, […], respectively. • (4) Samples were collected 24 hours after virus infection, and RNA was extracted with total RNA extraction kit as follows. • (5) The supernatant in the wells was discarded, then 350 μl of TRK Lysis Buffer was added to each well and the plate was shaken on the shaker for 5 minutes. • (6) 350 μl of 70% ethanol (DEPC-treated) was added to the well and the plate was shaken on the shaker for 5 minutes. • (7) The mixture in the well was transferred to a RNA extraction column and centrifuged at 12000 g for 1 min. • (8) The solution collected in the recovery tube was added back to the column and centrifuged at 12000 g for 1 min. • (9) RNA washing buffer 1 was added to the column and centrifuged at 12,000 g for 30 s. • (10) RNA washing buffer 2 was added to the column and centrifuged at 12,000 g for 1 min. • (11) Step (10) was repeated once. • (12) The column was centrifuged at 12,000 g for 2 min to completely remove residual RNA washing buffer. • (13) 50 μl DEPC-treated H2O was added to the column and centrifuge at 12,000 g for 2 min. • (14) 2 μl RNA sample was used according to one step qRT-PCR kit for fluorescence quantification experiment.

[3] = 20 mg/kg i.p. once daily for 3 days
Text: • (1) A total of 12 10-day-old suckling mice were randomly divided into two groups, 6 in each group.

[4] = tested on: EV71; assay: Anti-EV71 efficiency in Vero cells, viral RNA by qRT-PCR; assay type: cell-based, enterovirus 71; conditions: read-out: IC50 against EV71 by qRT-PCR
Text: […]

[5] = tested on: EV71; assay: Anti-EV71 efficiency in Huh7.5 cells, viral RNA by qRT-PCR; assay type: cell-based, enterovirus 71; conditions: read-out: IC50 against EV71 by qRT-PCR
Text: […]

[6] = tested on: CVB5; assay: Anti-CVB5 effect in RD cells, qRT-PCR; assay type: cell-based, Coxsackievirus B5; conditions: Example 20, read-out: IC50 against CVB5
Procedure: • (1) […] were plated in a 24-well cell plate. • (2) After the cells reached 70%-80% confluence, the MEM medium containing 10% serum was replaced with a MEM medium containing 2% serum (0.5 ml/well).

[7] = tested on: CVB3; assay: Anti-CVB3 effect in Vero cells, qRT-PCR; assay type: cell-based, Coxsackievirus B3; conditions: text of Example 21, read-out: IC50 against CVB3
Procedure: • (1) Vero cells were plated in a 24-well cell plate. • (2) After the cells reached 70%-80% confluence, the MEM medium containing 10% serum was replaced with a MEM medium containing 2% serum and CVB3 virus, 0.5 ml per well. MOI of the virus was 0.01. […]

For CC(=O)N[C@H](CCCNC(=N)N)C(=O)N[C@H](CS)C(=O)N[C@H](Cc1ccc(O)cc1)C(=O)N[C@H](CCC(N)=O)C(=O)N[C@H](CCCNC(=N)N)C(=O)N[C@@H](C(=O)N[C@H](CCC(=O)O)C(=O)N[C@H](CCC(=O)O)C(=O)N1CCC[C@@H]1C(=O)N1CCC[C@@H]1C(=O)N[C@H](CCCNC(=N)N)C(=O)N[C@H](CCCNC(=N)N)C(=O)N[C@H](CCCNC(=N)N)C(=O)N[C@H](CCC(N)=O)C(=O)N[C@H](CCCNC(=N)N)C(=O)N[C@H](CCCNC(=N)N)C(=O)N[C@H](CCCCN)C(=O)N[C@H](CCCCN)C(=O)N[C@H](CCCNC(=N)N)C(=O)NCC(=O)N[C@H](Cc1ccc(O)cc1)C(N)=O)C(C)C [ER-DRI] (Ac-[dR][dC][dY][dQ][dR][dV][dE][dE][dP][dP][dR][dR][dR][dQ][dR][dR][dK][dK][dR]G[dY]-NH2), the “EV71 viral load in mouse lung, in words” value ([1]; 10 mg/kg i.p. every 12 h for 5 days vs PBS) was “can significantly reduce the viral load of EV71 in the mouse lung”, the “Number of virus copy in lung tissue (Copies/g)” value ([1]; 2-day-old ICR mice, EV71 i.p., 10 mg/kg i.p. every 12 h for 5 days, individual animals, 10 mg/kg) was 294534 Copies/g and 484192 Copies/g and 2956937 Copies/g and 549759 Copies/g and 116302 Copies/g and the “Virus inhibition rate (%)” value ([2]; 0.625 μM) was 71.8% and 74.9% and 67.5%. The “Virus inhibition rate (%)” value ([2]; 2.15 μM) was 72.6% and 85.3% and 90.4%, the “Virus inhibition rate (%)” value ([2]; 2.5 μM) was 91.3% and 93.4% and 91.7% and the “Virus inhibition rate (%)” value ([2]; 5 μM) was 94.3% and 94.9% and 96.4%. For the same compound, the “Virus inhibition rate (%)” value ([2]; 10 μM) was 91.4% and 97.8% and 97.9%, the “effect on CVA6 replication, in words” value ([2]; Vero cells) was “able to inhibit the replication of CVA6” and the IC50 ([2]; Vero cells, read-out: IC50 against CVA6) was < 625 nM. The “HE staining of brain, liver, lung and kidney, in words” value ([3]; four weeks after administration) was “no significant pathological change in the brain, liver, lung and kidney” and the “body weight vs PBS group, in words” value ([3]; 10-day-old suckling mice, weight recorded 15 days) was “no significant difference in body weight”.
RRRRRRRREEVRQYCRDQ [P2] showed an IC50 [4] of 1960 nM and an IC50 [5] of 1840 nM.
Compound YGRKKRRQRRRGSGEAVREYCK [BP8] has an IC50 [6] of 1540 nM and an IC50 [7] of 4.12 µM.
